Laboratory results: US9815796B2 (Merck Sharp & Dohme Corp., priority 2013, dated 2017)

Target: Rhesus PDE2A3 (Macaca mulatta, UniProt B3VTJ2)
Experiment: PDE2 fluorescence polarization (IMAP FP) inhibition assay, rhesus enzyme
Type: biochemical, rhesus macaque
Settings: Rhesus PDE2, Lab A; read-out: Rhesus PDE2 Ki (nM) - Lab A
Procedure, shortened: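 IMAP FP (mP from parallel and perpendicular fluorescence against substrate-only control) was read ≥1 h after adding binding reagent. The preceding 60 min room-temperature reaction contained FAM-cAMP (50 nM) and cGMP (1 uM) in pH 7.2 Tris buffer with MgCl2 and DTT. Enzyme was supernatant of sonicated AD293 cells expressing rhesus PDE2A3; compounds were 3-fold titrated, DMSO 1% final.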

Rhesus PDE2A3, sequence (B3VTJ2 1-941): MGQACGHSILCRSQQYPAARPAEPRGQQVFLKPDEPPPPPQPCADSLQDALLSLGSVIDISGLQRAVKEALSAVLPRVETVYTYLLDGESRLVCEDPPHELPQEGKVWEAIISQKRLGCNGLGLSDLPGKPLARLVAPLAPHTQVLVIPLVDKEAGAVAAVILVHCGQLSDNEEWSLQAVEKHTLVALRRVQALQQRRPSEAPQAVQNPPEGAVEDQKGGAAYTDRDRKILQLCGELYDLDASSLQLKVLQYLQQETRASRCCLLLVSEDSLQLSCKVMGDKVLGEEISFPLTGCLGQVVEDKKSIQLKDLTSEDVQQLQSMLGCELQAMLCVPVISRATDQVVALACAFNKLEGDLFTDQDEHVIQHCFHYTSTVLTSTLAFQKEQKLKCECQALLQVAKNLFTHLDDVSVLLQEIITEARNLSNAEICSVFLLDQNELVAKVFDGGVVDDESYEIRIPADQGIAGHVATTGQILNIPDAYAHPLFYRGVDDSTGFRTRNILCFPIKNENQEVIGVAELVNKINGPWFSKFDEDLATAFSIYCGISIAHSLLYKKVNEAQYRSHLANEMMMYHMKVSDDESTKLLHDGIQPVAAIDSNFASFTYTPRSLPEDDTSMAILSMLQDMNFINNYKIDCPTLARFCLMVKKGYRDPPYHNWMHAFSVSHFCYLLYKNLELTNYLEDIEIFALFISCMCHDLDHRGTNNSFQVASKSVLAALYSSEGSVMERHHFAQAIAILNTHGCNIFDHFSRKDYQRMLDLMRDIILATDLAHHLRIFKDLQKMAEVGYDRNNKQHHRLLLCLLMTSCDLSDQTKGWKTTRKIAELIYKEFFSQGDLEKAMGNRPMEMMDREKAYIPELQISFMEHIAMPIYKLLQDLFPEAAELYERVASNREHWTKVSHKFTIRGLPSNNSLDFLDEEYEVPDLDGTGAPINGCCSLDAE

`Cc1nc(C(=O)N[C@H](c2ccc(C(F)(F)F)cc2)C(C)C)cc(=O)[nH]1` [Example 315, 2-methyl-N-{(1S)-2-methyl-1-[4-(trifluoromethyl)phenyl]propyl}-6-oxo-1,6-dihydropyrimidine-4-carboxamide] was tested. Which Ki did it give?
The Ki was 698 nM.

Which Ki does the source give for `CCC(NC(=O)c1cc(=O)[nH]c(C)n1)c1ccc(C(C)(C)C)cc1` (centres unmarked) [Example 12, N-[1-(4-tert-butylphenyl)propyl]-2-methyl-6-oxo-1,6-dihydropyrimidine-4-carboxamide] here?
The Ki was 102 nM.

For `Cc1nc(C(=O)NC(C)c2cccc(-c3ccc(F)cc3)c2)cc(=O)[nH]1` (centres unmarked) [Example 267, N-[1-(4′-fluorobiphenyl-3-yl)ethyl]-2-methyl-6-oxo-1,6-dihydropyrimidine-4-carboxamide], which Ki is on record?
The Ki was 8060 nM.

How did the Ki turn out when `Cc1nc(C(=O)N[C@@H](C)c2cccc3ccccc23)cc(=O)[nH]1` [Example 302, 2-methyl-N-[(3S)-1-naphthalen-1-ylethyl]-6-oxo-1,6-dihydropyrimidine-4-carboxamide] was run?
Its Ki is 51400 nM.

For `Cc1cc(-c2ccc([C@@H](C)NC(=O)c3cc(=O)[nH]c(C)n3)cc2)ccn1` [Example 319, 2-methyl-N-{(1R)-1-[4-(2-methylpyridin-4-yl)phenyl]ethyl}-6-oxo-1,6-dihydropyrimidine-4-carboxamide], which Ki is on record?
Its Ki is 1490 nM.

`CC(NC(=O)c1cc(=O)[nH]c(-c2ccccc2)n1)c1ccccc1C(F)(F)F` (centres unmarked) [Example 169, 6-oxo-2-phenyl-N-{1-[2-(trifluoromethyl)phenyl]ethyl}-1,6-dihydropyrimidine-4-carboxamide] was tested. Which Ki did it give?
The Ki was 3420 nM.

How did the Ki turn out when `O=C(NCc1ccc(C(F)(F)F)cc1Cl)c1cc(=O)[nH]c(C2CC2)n1` [Example 229, N-[2-chloro-4-(trifluoromethyl)benzyl]-2-cyclopropyl-6-oxo-1,6-dihydropyrimidine-4-carboxamide] was run?
Its Ki is 864 nM.

`COc1cc(C(F)(F)F)ccc1[C@@H](C)NC(=O)c1cc(=O)[nH]c(-c2ncccn2)n1` [Example 109, N-{(1R)-1-[2-methoxy-4-(trifluoromethyl)phenyl]ethyl}-6-oxo-1,6-dihydro-2,2′-bipyrimidine-4-carboxamide] was tested. Which Ki did it give?
Its Ki is 342 nM.

`CC(C)c1ccc(CCNC(=O)c2cc(=O)[nH]c(-c3ccccc3)n2)cc1` [Example 348, N-{2-[4-(1-methylethyl)phenyl]ethyl}-6-oxo-2-phenyl-1,6-dihydropyrimidine-4-carboxamide] was tested. Which Ki did it give?
Its Ki is about 877 nM.

Which Ki does the source give for `C[C@@H](NC(=O)c1cc(=O)[nH]c(-c2ccccc2)n1)c1ccccc1` [Example 342, 6-oxo-2-phenyl-N-[(1R)-1-phenylethyl]-1,6-dihydropyrimidine-4-carboxamide] here?
The Ki was about 605 nM.

`COc1ccc(C(NC(=O)c2cc(=O)[nH]c(-c3ncccn3)n2)c2ccc(C(F)(F)F)cc2)cc1` (centres unmarked) [Example 87, N-{(4-methoxyphenyl)[4-(trifluoromethyl)phenyl]methyl}-6-oxo-1,6-dihydro-2,2′-bipyrimidine-4-carboxamide] was tested. Which Ki did it give?
Its Ki is 1920 nM.

How did the Ki turn out when `O=C(NC(c1ccccc1)c1ccc(C(F)(F)F)cc1)c1cc(=O)[nH]c(-c2ncccn2)n1` (centres unmarked) [Example 78, 6-oxo-N-{phenyl[4-(trifluoromethyl)phenyl]methyl}-1,6-dihydro-2,2′-bipyrimidine-4-carboxamide] was run?
The Ki was 1080 nM.

For `COc1cc(C(C)NC(=O)c2cc(=O)[nH]c(C3CC3)n2)ccc1C(F)(F)F` (centres unmarked) [Example 226, 2-cyclopropyl-N-{1-[3-methoxy-4-(trifluoromethyl)phenyl]ethyl}-6-oxo-1,6-dihydropyrimidine-4-carboxamide], which Ki is on record?
Its Ki is 505 nM.

For `COc1ccc(Cc2nc(C(=O)NC3(C)CC3)cc(=O)[nH]2)cc1OC` [Example 5, 2-(3,4-dimethoxybenzyl)-N-(1-methylcyclopropyl)-6-oxo-1,6-dihydropyrimidine-4-carboxamide], which Ki is on record?
The Ki was 1150 nM.

With `Cc1nc(C(=O)N[C@H](C)c2ccc(-c3cccnc3)cc2)cc(=O)[nH]1` [Example 320, 2-methyl-6-oxo-N-[(1R)-1-(4-pyridin-3-ylphenyl)ethyl]-1,6-dihydropyrimidine-4-carboxamide] as the compound, how does the Ki read?
Its Ki is 1700 nM.

For `CC(NC(=O)c1cc(=O)[nH]c(C2CC2)n1)c1ccc(C(F)(F)F)cn1` (centres unmarked) [Example 238, 2-cyclopropyl-6-oxo-N-{1-[5-(trifluoromethyl)pyridin-2-yl]ethyl}-1,6-dihydropyrimidine-4-carboxamide], which Ki is on record?
The Ki was 683 nM.

Which Ki does the source give for `CC(NC(=O)c1cc(=O)[nH]c(-c2ccccc2)n1)c1ccc(F)cc1` (centres unmarked) [Example 343, N-[1-(4-fluorophenyl)ethyl]-6-oxo-2-phenyl-1,6-dihydropyrimidine-4-carboxamide] here?
Its Ki is about 601 nM.

Which Ki does the source give for `COc1ccc([C@@H](C)NC(=O)c2cc(=O)[nH]c(-c3ncccn3)n2)c(OC)c1` [Example 88, N-[(1R)-1-(2,4-dimethoxyphenyl)ethyl]-6-oxo-1,6-dihydro-2,2′-bipyrimidine-4-carboxamide] here?
Its Ki is 2360 nM.

How did the Ki turn out when `COCc1nc(C(=O)NC(C)(C)c2ccc(C(F)(F)F)cc2)cc(=O)[nH]1` [Example 124, 2-(methoxymethyl)-N-{1-methyl-1-[4-(trifluoromethyl)phenyl]ethyl}-6-oxo-1,6-dihydropyrimidine-4-carboxamide] was run?
Its Ki is 283 nM.

Which Ki does the source give for `CC(NC(=O)c1cc(=O)[nH]c(-c2ccccc2)n1)c1cccc(Cl)c1` (centres unmarked) [Example 368, N-[1-(3-chlorophenyl)ethyl]-6-oxo-2-phenyl-1,6-dihydropyrimidine-4-carboxamide] here?
Its Ki is about 880 nM.

Same assay, conditions: Rhesus PDE2, Lab B; read-out: Rhesus PDE2 Ki (nM) - Lab B

How did the Ki turn out when `CCOC(=O)c1ccc([C@H](C)NC(=O)c2cc(=O)[nH]c(-c3ncccn3)n2)cc1` [Example 431, ethyl 4-[(1S)-1-{[(6-oxo-1,6-dihydro-2,2′-bipyrimidin-4-yl)carbonyl]amino}ethyl]benzoate] was run?
The Ki was about 2890 nM.

For `Cc1nc(C(=O)NC(c2ccc(SC(F)(F)F)c(F)c2)C2(C)CC2)cc(=O)[nH]1` (single isomer, unassigned) [Example 703, (S)- or (R)-N-((3-fluoro-4-((trifluoromethyl)thio)phenyl)(1-methylcyclopropyl)methyl)-2-methyl-6-oxo-1,6-dihydropyrimidine-4-carboxamide], which Ki is on record?
Its Ki is over 2970 nM.

For `CC(NC(=O)c1cc(=O)[nH]c(-c2ccccc2)n1)c1cccc(C(F)(F)F)c1` (centres unmarked) [Example 395, 6-oxo-2-phenyl-N-{1-[3-(trifluoromethyl)phenyl]ethyl}-1,6-dihydropyrimidine-4-carboxamide], which Ki is on record?
The Ki was 2050 nM.

How did the Ki turn out when `Cc1nc(C(=O)NC(C)c2ccc(C(C)(C)C(F)(F)F)cc2)cc(=O)[nH]1` (single isomer, unassigned) [Example 695, (R)- or (S)-2-methyl-6-oxo-N-(1-(4-(1,1,1-trifluoro-2-methylpropan-2-yl)phenyl)ethyl)-1,6-dihydropyrimidine-4-carboxamide] was run?
Its Ki is 473 nM.

For `CC(C)c1ccc(CCNC(=O)c2cc(=O)[nH]c(-c3ccccc3)n2)cc1` [Example 348, N-{2-[4-(1-methylethyl)phenyl]ethyl}-6-oxo-2-phenyl-1,6-dihydropyrimidine-4-carboxamide], which Ki is on record?
The Ki was 1500 nM.

How did the Ki turn out when `C[C@@H](NC(=O)c1cc(=O)[nH]c(-c2ccccc2)n1)c1ccccc1` [Example 342, 6-oxo-2-phenyl-N-[(1R)-1-phenylethyl]-1,6-dihydropyrimidine-4-carboxamide] was run?
The Ki was 963 nM.

How did the Ki turn out when `O=C(NC(c1ccncc1)c1ccc(C(F)(F)F)cc1)c1cc(=O)[nH]c(-c2ccccc2)n1` (centres unmarked) [Example 399, 6-oxo-2-phenyl-N-{pyridin-4-yl[4-(trifluoromethyl)phenyl]methyl}-1,6-dihydropyrimidine-4-carboxamide] was run?
Its Ki is 407 nM.

For `Cc1nc(C(=O)NC(c2ccc(SC(F)(F)F)cc2)C(C)C)cc(=O)[nH]1` (stereo in doubt) [Example 615, 2-methyl-N-[(1S)-2-methyl-1-{4-[(trifluoromethyl)sulfanyl]phenyl}propyl]-6-oxo-1,6-dihydropyrimidine-4-carboxamide], which Ki is on record?
Its Ki is 441 nM.

`COC(=O)C(NC(=O)c1cc(=O)[nH]c(-c2ccccc2)n1)c1ccc(C(F)(F)F)cc1` (centres unmarked) [Example 406, methyl {[(6-oxo-2-phenyl-1,6-dihydropyrimidin-4-yl)carbonyl]amino}[4-(trifluoromethyl)phenyl]acetate] was tested. Which Ki did it give?
Its Ki is 226 nM.

`CC(C)(NC(=O)c1cc(=O)[nH]c(-c2ccccc2)n1)c1ccc(S(F)(F)(F)(F)F)cc1` [Example 679, N-{1-methyl-1-[4-(pentafluoro-λ^6-sulfanyl)phenyl]ethyl}-6-oxo-2-phenyl-1,6-dihydropyrimidine-4-carboxamide] was tested. Which Ki did it give?
The Ki was 90 nM.

`CC(NC(=O)c1cc(=O)[nH]c(-c2ccccc2)n1)c1ccc(F)cc1` (centres unmarked) [Example 343, N-[1-(4-fluorophenyl)ethyl]-6-oxo-2-phenyl-1,6-dihydropyrimidine-4-carboxamide] was tested. Which Ki did it give?
The Ki was 682 nM.

With `CC(NC(=O)c1cc(=O)[nH]c(-c2ccccc2)n1)c1cccc(Cl)c1` (centres unmarked) [Example 368, N-[1-(3-chlorophenyl)ethyl]-6-oxo-2-phenyl-1,6-dihydropyrimidine-4-carboxamide] as the compound, how does the Ki read?
The Ki was 1100 nM.
